Experimental data reported in US9113629B2, “4-amino-6-(4-substituted-phenyl)-picolinates and 6-amino-2-(4-substituted-phenyl)-pyrimidine-4-carboxylates and their use as herbicides” (DOW AGROSCIENCES LLC, priority 2013, dated 2015).

Legend:
Format in all cases: in vivo
[1] = test system: AVEFA: wild oats (Avena fatua); assay: Pre-emergent Test I herbicidal activity; details: pre-emergence, 336 h, 4.04 kg ai/ha, read-out: Visual Growth Reduction (%) 14 Days After Application, AVEFA
How it was run: (§1)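 Test compounds, serially diluted from the highest rate in an aqueous acetone/isopropanol/DMSO vehicle with crop oil concentrate, are applied to the soil of freshly seeded pots and watered in. Pots are kept in the greenhouse under supplemental lighting. Effect is scored at 14 days on a 0-100 scale.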

[2] = test system: ECHCG: barnyardgrass (Echinochloa crus-galli); assay: Pre-emergent Test I herbicidal activity; details: pre-emergence, 336 h, 4.04 kg ai/ha, read-out: Visual Growth Reduction (%) 14 Days After Application, ECHCG
How it was run: as §1

[3] = test system: HELAN: sunflower (Helianthus annuus); assay: Pre-emergent Test I herbicidal activity; details: pre-emergence, 336 h, 4.04 kg ai/ha, read-out: Visual Growth Reduction (%) 14 Days After Application, HELAN
How it was run: as §1

[4] = test system: CIRAR: Canada thistle (Cirsium arvense); assay: Post-emergent Test III, herbicidal activity in wheat and barley; details: Table 8, 21 d
How it was run: (§2)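 GR20, GR50, GR80 and GR90 come from probit analysis of visual injury scores (0 = none, 100 = complete kill) taken 21 d after treatment. Foliar application was by track sprayer delivering 187 L/ha at five rates, from high down to 1/16×, onto greenhouse plants at the 2–3 leaf stage, with solvent-blank controls.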

[5] = test system: GALAP: cleavers (Galium aparine); assay: as above; details: Table 8, 21 d
How it was run: as §2

[6] = test system: VIOSS: wild pansy (Viola tricolor), field violet (Viola arvensis); assay: as above; details: Table 8, 21 d
How it was run: as §2

[7] = dose for 50 percent growth reduction, probit analysis
[8] = dose for 80 percent growth reduction, probit analysis

COC(=O)c1nc(-c2ccc(C#N)c(F)c2)c(F)c(N)c1Cl [Compound 135, methyl 4-amino-3-chloro-6-(4-cyano-3-fluorophenyl)-5-fluoropicolinate]
pest or weed control at 4040 g/ha [1]: 30 to 44%
pest or weed control at 4040 g/ha [2]: 30 to 44%
pest or weed control at 4040 g/ha [3]: 95 to 100%
pest or weed control at 35 g/ha ([4]; Cirsium arvense, post-emergence, 504 h, 35 g ai/ha, post-emergent, read-out: Visual Growth Reduction (%) 21 Days After Application CIRAR): 85 to 94%
pest or weed control at 70 g/ha ([4]; Cirsium arvense, post-emergence, 504 h, 70 g ai/ha, post-emergent, read-out: Visual Growth Reduction (%) 21 Days After Application CIRAR): 85 to 94%
pest or weed control at 140 g/ha ([4]; Cirsium arvense, post-emergence, 504 h, 140 g ai/ha, post-emergent, read-out: Visual Growth Reduction (%) 21 Days After Application CIRAR): 85 to 94%
GR50 CIRAR [4, 7]: 1 g ai/ha
GR80 CIRAR [4, 8]: 13 g ai/ha
pest or weed control at 35 g/ha ([5]; Galium aparine, post-emergence, 504 h, 35 g ai/ha, post-emergent, read-out: Visual Growth Reduction (%) 21 Days After Application GALAP): 60 to 74%
pest or weed control at 70 g/ha ([5]; Galium aparine, post-emergence, 504 h, 70 g ai/ha, post-emergent, read-out: Visual Growth Reduction (%) 21 Days After Application GALAP): 95 to 100%
pest or weed control at 140 g/ha ([5]; Galium aparine, post-emergence, 504 h, 140 g ai/ha, post-emergent, read-out: Visual Growth Reduction (%) 21 Days After Application GALAP): 95 to 100%
GR50 GALAP [5, 7]: 12 g ai/ha
GR80 GALAP [5, 8]: 38 g ai/ha
GR50 VIOSS [6, 7]: 23 g ai/ha
GR80 VIOSS [6, 8]: >140 g ai/ha
pest or weed control at 35 g/ha ([6]; Viola tricolor, post-emergence, 504 h, 35 g ai/ha, post-emergent, read-out: Visual Growth Reduction (%) 21 Days After Application VIOSS): 60 to 74%
pest or weed control at 70 g/ha ([6]; Viola tricolor, post-emergence, 504 h, 70 g ai/ha, post-emergent, read-out: Visual Growth Reduction (%) 21 Days After Application VIOSS): 60 to 74%
pest or weed control at 140 g/ha ([6]; Viola tricolor, post-emergence, 504 h, 140 g ai/ha, post-emergent, read-out: Visual Growth Reduction (%) 21 Days After Application VIOSS): 75 to 84%
